Among the data in a melting point compilation (Tetko et al.; mined from patent text by program, amines drawn as free bases though some values may be those of a salt) are melting point values, retold here.

Usually melting point stands for the temperature, or range, at which the solid turns liquid.

SMILES strings stand for the structures. Bounds are passed on as bounds.

For the compound `NCCN1CCC(Nc2nc3cccnc3n2Cc2ccccn2)CC1`, the melting point is 151 °C. As for `Oc1cccc([C@H]2CCCC[C@H]2N2CCCC2)c1` (relative stereo), the figure is 124 to 126 °C. Take `COc1cc2[nH]c(=O)c(-c3csc(-c4ccncc4)n3)c(N)c2cc1OC`: the melting point was more than 250 °C. As for `O=C(/C=C/[C@@H]1[C@H]2CC(=O)O[C@H]2C[C@H]1OC(=O)c1ccc(-c2ccccc2)cc1)COc1cccc(C(F)(F)F)c1`, the figure is 115 to 116 °C; as for `CN1CCN(Cc2ccc(-c3cc4ncnc(Nc5ccc6[nH]ccc6c5)c4s3)cc2)CC1`, 143 to 150 °C. `O=C1CCC(c2c[nH]c3ccc(F)cc23)C1` (stereo unspecified) came in with a melting point of 119 to 120 °C. As for `COc1ccccc1C1=C(NC(=O)Nc2ccc(N(C)C)cc2)SCc2ccccc21`, the figure is 128 to 130 °C; as for `CC(C(=O)O)c1ccc2c(c1)Cc1cc(F)ccc1S2` (stereo unspecified), 140 to 145 °C. Consider `CCC1(C=O)CSc2ccccc2C(c2ccccc2)=N1` (racemic), for which the melting point fell in the range of 98 to 100 °C. The compound `Cn1c(CC(=O)O)ccc1C(=O)c1ccc(F)cc1` registered a melting point of 164 to 165 °C. As for `O=C(NC1CCCC1)c1ccc(CCN2CC=C(c3c[nH]c(-c4ccc(F)cc4)c3-c3ccncc3)CC2)cc1`, the figure is 192 to 195 °C; as for `COc1ccc(/C=C(\C#N)c2ccc(Cl)cc2)cc1OC1CCCC1`, 129 to 137 °C. The compound `O=C(Nc1c(Br)cc(Br)cc1C(=O)NCC1CCCCC1)N[C@@H](Cc1ccc(NC(=O)c2c(Cl)cccc2Cl)cc1)C(=O)O` yielded a melting point of 193 °C.

Compound `COC(=O)c1cc(I)ccc1NS(C)(=O)=O` showed a melting point of 119 to 120 °C.

For `CC(C)NCC#CC(O)c1ccccc1-c1ccccc1` (stereo unspecified), the melting point was 116 to 119 °C. As for `CN(C)C(=O)c1ccccc1Sc1ccc(Br)cc1[N+](=O)[O-]`, the figure is 112 to 114 °C; as for `Cn1nnnc1-c1cnc2cc(Br)ccc2c1O`, more than 300 °C; as for `CC(C)(C)OC(=O)COCCCCCCn1nc(-c2ccccc2)c(-c2ccccc2)c1-c1ccccc1`, 69 to 72 °C. With `CC(=O)OS(=O)(=O)OC(C)=O` the figure was 228 °C; with `C=CCS(=O)(=O)c1ccc(N2CC=C(c3ccc(Cl)cc3)N2)cc1`, 210 °C; with `COc1cc2c(c(OC)c1OC)CCC(Br)C2=O` (stereo unspecified), 107 to 108 °C. In turn, `CS(=O)(=O)c1ccc(-c2cc(F)c(F)cc2-c2ccc(F)c(Cl)c2)cc1` returned a melting point of 172 °C. Compound `O=C(NCC(O)C(=O)O)c1cc2cc(Cl)ccc2[nH]1` (racemic) displayed a melting point of 214 to 215 °C. As for `CN1CCN(C(c2ccc(Cl)cc2)c2ccccc2C(=O)O)CC1` (stereo unspecified), the figure is 144 to 150 °C.

In turn, `O=CC=Cc1c(C2CC2)nc2ccccc2c1-c1ccc(F)cc1` had a melting point of 146 to 147 °C. As for `COC(=O)Cc1cn(Cc2ccc(OCc3ccccc3)cc2)nc1-c1ccc(F)cc1`, the melting point lay within 58 to 59 °C. As to `CCOCc1nc2c(N)nc3cccnc3c2n1CCCC(C)N(OC)C(=O)NC(C)C` (stereo unspecified), the melting point is 174 to 175 °C. As for `CC(/C=C/n1ncc(-c2ccc(S(N)(=O)=O)cc2)c(-c2ccc(F)cc2)c1=O)C(F)(F)F` (stereo unspecified), the figure is 155 to 157 °C. Regarding `O=C(C=Cc1ccccc1-c1ccccc1)c1ccccc1`, the melting point is 190 °C.

Regarding `CC(C)c1cn(C)cc(-c2cccc(C(F)(F)F)c2)c1=O`, the melting point fell in the range of 98.5 to 99.5 °C. Regarding `O=C(NCc1ccc([N+](=O)[O-])cc1)C(F)(F)F`, the melting point fell in the range of 97 to 98 °C. As for `N#CC(c1ccccc1)(c1ccccc1)[C@H]1CCCN(CCc2ccc(CO)cc2)C1`, the figure is 110 to 114 °C; as for `CCC(=O)N[C@@H](C)C(=O)N1CCC[C@H]1C(=O)NC`, 163 to 165 °C; as for `OC(c1ccccc1)c1ccc(-c2ccccc2)cc1` (stereo unspecified), 72 to 73 °C. `N=C(N)c1ccc(O)cc1`: the melting point came to 160 °C. With `CC(O)CCCCc1ccc(S(N)(=O)=O)s1` (stereo unspecified) the figure was 75 to 76 °C. As for `CCCCCCCCCCCCc1ccc(C(=O)c2ccccc2C(=O)O)cc1`, the figure is 85 °C. Compound `CCOCN1C(C)=C(C(=O)OC)[C@H](c2cccc([N+](=O)[O-])c2)C(C(=O)OCOC(=O)C(C)(C)C)=C1C` had a melting point of 81 to 82 °C.

Compound `CN(C)CCCN1c2ccccc2C(c2ccccc2Cl)=Nc2cccnc21` came in with a melting point of 104 to 106 °C. As for `CCOC(=O)c1nc2cc(Br)ccc2c(O)c1C(=O)OCC`, the figure is 234 °C; as for `CON1C=C2N=NC3=C(N2C1)N(c1ccccc1Cl)CC(C)=C3`, 198 to 200 °C.

The compound `CCOC(=O)c1ccc(C2=NOCCS2)cc1` showed a melting point of 69 to 70 °C. `COC(=O)c1ccc(NS(=O)(=O)c2sc3ccc(F)cc3c2C)c(S(C)(=O)=O)c1` gave a melting point of 202 to 204 °C.

`Cc1c(F)c(Oc2cccc(C(=N)N)c2)nc(Oc2cccc(C(=N)N)c2)c1F` showed a melting point of more than 210 °C.

Regarding `O=C(O)c1cn(C2CC2)c2cc(Cl)ncc2c1=O`, the melting point was 226 to 227 °C. With `COC(=O)c1cc(O)c([N+](=O)[O-])cc1C(=O)OC` the figure was 82 to 85 °C; with `Nc1nc(N)nc(N2CCNCC2)n1`, 262 to 268 °C; with `COc1cc(OC)nc(OC(C(=O)O)C2c3ccccc3CC2C)n1` (stereo unspecified), 148 to 151 °C.

Regarding `OCc1ccc(OCc2cn3c(Cl)cccc3n2)cc1`, the melting point fell in the range of 169 to 171 °C. `CN(CCN(C)CCN1C(=O)c2cccc3cc4ccccc4c(c23)C1=O)CCN1C(=O)c2cccc3cc4ccccc4c(c23)C1=O` returned a melting point of 255 °C. With `COc1ccnc(CCc2nc3cc(-c4ccc(S(=O)(=O)N5CCc6cc(OC)c(OC)cc6C5)cc4)cnc3[nH]2)c1` the figure was 207 to 208 °C; with `CN(C)CCNc1ccc([N+](=O)[O-])c2sc3ccc(O)cc3c(=O)c12`, more than 300 °C. With `COc1cc(C(C)C)c2c(c1)S(=O)(=O)N(COC(=O)c1sccc1C)C2=O` the figure was 132 to 134 °C; with `Clc1ccc2ccc(COc3ccc4c(c3)C(SCCc3nnn[nH]3)c3ccccc3CO4)nc2c1` (stereo unspecified), 142 to 147 °C. Regarding `O=C(Oc1ccccc1)c1cc2ccc3c4cc(F)ccc4[nH]c3c2cc1O`, the melting point lay within 289 to 290 °C. On to `COc1cc(Nc2c(C#N)cnc3cc(-c4ccc(CNCCc5ccccn5)o4)ccc23)c(Cl)cc1Cl`, for which the melting point is 130 to 135 °C. In turn, `CC(=O)C(CSC(=S)N(C)C)=C(C)O` displayed a melting point of 70 to 72 °C. In turn, `CC(C)S(=O)(=O)n1c(N)nc2ccc(C(=CCl)c3ccccc3)cc21` had a melting point of 180 to 181 °C. With `N#Cc1ccc(-c2ccc(C(=O)O)nc2)cc1` the figure was more than 260 °C; with `C(=C\c1cc(/C=C/c2ccc3cc[nH]c3c2)[nH]n1)/c1ccc2cc[nH]c2c1`, 289 to 291 °C; with `O=c1[nH]c(-c2ccc(CCCl)cc2)cs1`, 226 to 229 °C.

`O=C(Nc1ccc(OCc2ccccc2)cc1)C(Br)CCBr` (racemic) displayed a melting point of 140 to 142 °C. In the case of `O=C1C(O)=C(C2CCC(c3ccc(Cl)cc3)CC2)C(=O)c2ccccc21` (stereo unspecified), the melting point was in the range of 216 to 219 °C. Consider `CCCc1nn(Cc2ccccc2)c(C(N)=O)c1NC(=O)c1cc(S(=O)(=O)N2CCN(C)CC2)ccc1OCC`, for which the melting point fell in the range of 182 to 184 °C. As for `CCCc1nn(C)c2c(=O)n(CCNc3ccc(C(C)=O)cc3)c(-c3ccc(OC)c(OC)c3)nc12`, the figure is 182 to 184 °C. As for `CC(=O)OC1CSC(Oc2cncc(-c3c(C)noc3C)c2)C(OC(C)=O)C1OC(C)=O` (stereo unspecified), the figure is 129 to 131 °C. Regarding `Nc1nc2c(sc(=O)n2Cc2ccc(Br)cc2)c(=O)[nH]1`, the melting point was more than 320 °C. With `CCOC(=O)[C@H]1CCC(=O)[C@@H](n2nc(-c3c(-c4ccccc4)nn4ccccc34)ccc2=O)C1` (relative stereo) the figure was 160 to 162 °C; with `O=C1NCCc2c(-c3cccnc3)[nH]c3cccc1c23`, 260 to 262 °C; with `C[C@@H](n1ccnn1)[C@](O)(Cn1ccnc1)c1ccc(F)cc1F`, 150 to 151 °C.

As to `Cc1cc(Br)cnc1CCCCNN1Cc2ccccc2S(=O)(=O)N1`, the melting point is 187 to 188 °C. With `CCN(CC)CCNC(=O)c1ccc(Nc2nccc(-c3cccnc3)n2)cc1` the figure was 148 to 150 °C; with `CC(=O)OC1OCCC[C@@H]1NC(=O)[C@H](CC(C)C)NC(=O)OCc1ccccc1` (stereo partly specified), 142 to 143 °C. For `CN(C)C=Nc1nc(CN2CCN(C(c3ccccc3)c3ccccc3)CC2)cs1`, the melting point is 148 to 150 °C. With `CC(C)OC(=O)c1ccc2c(c1)C(=O)CC(c1ccccc1)=N2` the figure was more than 300 °C; with `CCN[C@H]1CCC[C@H](Oc2ccc3[nH]ncc3c2C)C1` (relative stereo), 95 to 97 °C; with `COc1ccc2[nH]c(C3CCC(c4ccccc4)(N(C)C)CC3)c(C)c2c1` (stereo unspecified), 156 to 163 °C. With `O=C1CCC(CCCOC2CCOCC2)(c2ccc(Cl)c(Cl)c2)CN1` (stereo unspecified) the figure was 45 °C; with `Cn1c(-c2ccccc2F)c2ccsc2nc1=O`, 191 to 192 °C; with `CSCC1Cn2cc(C(=O)NCc3ccc(Cl)cc3)c(=O)c3cc(CN4CCOCC4)cc(c32)O1` (stereo unspecified), 190 to 191 °C.

On to `N#Cc1cnn2c3c(c(C(=O)O)nc12)CCN3C1CCCCC1`, for which the melting point was 253 to 255 °C.

Turning to `COc1cc(NC(=O)Nc2ccc(C3CCN(C(=O)Nc4ccc(OCC(O)CO)cc4Cl)CC3)cc2)cc(OC)c1` (stereo unspecified), the melting point was 105 to 108 °C. As for `O=C([C@@H](Cc1ccc(Cl)cc1)NC1CCC(O)(c2ccc(F)cc2)CC1)N1CCC(Cn2cncn2)(C2CCCCC2)CC1` (stereo partly specified), the figure is 150 °C; as for `O[C@H]1[C@H](O)CS[C@H]1n1cnc2c(Cl)ncnc21`, 192 to 193 °C. As to `COc1ccc([C@@H]2C[C@H]2CNC(=O)N(C)O)cc1` (relative stereo), the melting point amounted to 112 °C. On to `CC1(C)Cc2cccc(Oc3ccc(N)cc3Cl)c2O1`, for which the melting point lay within 102 to 104 °C.
